Our source for the IC50 values is patent US8575158B2, “1-phenyl-substituted heterocyclyl derivatives and their use as prostaglandin D2 receptor modulators” (Actelion Pharmaceuticals Ltd., priority 2010, dated 2013).

This test deals with T1, hCRTH2 receptor (Homo sapiens, UniProt Q9Y5Y4).
T1 construct: expressed in transfected cells; host or cells: HEK293
T1 sequence (Q9Y5Y4 1-395): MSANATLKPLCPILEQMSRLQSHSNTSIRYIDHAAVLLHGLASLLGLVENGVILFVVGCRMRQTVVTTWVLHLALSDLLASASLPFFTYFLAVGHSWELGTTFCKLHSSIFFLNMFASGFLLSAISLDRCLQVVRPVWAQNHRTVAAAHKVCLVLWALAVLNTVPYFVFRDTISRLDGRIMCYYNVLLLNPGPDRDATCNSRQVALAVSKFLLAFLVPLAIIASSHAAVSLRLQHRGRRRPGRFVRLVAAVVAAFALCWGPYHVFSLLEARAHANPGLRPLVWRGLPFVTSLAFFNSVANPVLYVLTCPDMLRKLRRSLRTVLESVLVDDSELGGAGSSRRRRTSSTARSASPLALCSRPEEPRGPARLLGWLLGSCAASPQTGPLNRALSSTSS
The test can be described thus: Radioligand displacement assay (3H-PGD2) on hCRTH2 receptor membranes. The format is binding. To be noted: antagonistic activity, 3H-PGD2 radioligand displacement, HEK293-hCRTH2 membranes.

The IC50 is the concentration that inhibits the measured activity by half. Lower therefore signals greater potency. `O=C(O)COc1ccc(Cl)cc1[C@@H]1c2ccc(F)c(F)c2CCN1C(=O)OCCc1ccccc1` [Example 310, (S)-1-(2-Carboxymethoxy-5-chloro-phenyl)-5,6-difluoro-3,4-dihydro-1H-isoquinoline-2-carboxylic acid phenethyl ester] gave an IC50 of 5.14 nM.

For the compound `O=C(O)COc1ccc(Cl)cc1[C@@H]1c2ccc(F)c(F)c2CCN1C(=O)OCCc1cccc(F)c1` [Example 311, (S)-1-(2-Carboxymethoxy-5-chloro-phenyl)-5,6-difluoro-3,4-dihydro-1H-isoquinoline-2-carboxylic acid 2-(3-fluoro-phenyl)-ethyl ester], the 50% inhibitory concentration (IC50) amounted to 11 nM.

As for `Cn1nccc1COC(=O)N1CCc2c(ccc(F)c2F)[C@H]1c1cc(Cl)ccc1OCC(=O)O` [Example 312, (S)-1-(2-Carboxymethoxy-5-chloro-phenyl)-5,6-difluoro-3,4-dihydro-1H-isoquinoline-2-carboxylic acid 2-methyl-2H-pyrazol-3-ylmethyl ester], the half-inhibitory concentration (IC50) was 4.65 nM.

`Cc1cc(COC(=O)N2CCc3c(ccc(F)c3F)[C@H]2c2cc(Cl)ccc2OCC(=O)O)n(C)n1` [Example 313, (S)-1-(2-Carboxymethoxy-5-chloro-phenyl)-5,6-difluoro-3,4-dihydro-1H-isoquinoline-2-carboxylic acid 2,5-dimethyl-2H-pyrazol-3-ylmethyl ester]: the 50% inhibitory concentration (IC50) worked out at 2.37 nM.

`CCn1nc(C)cc1CCOC(=O)N1CCc2c(ccc(F)c2F)[C@H]1c1cc(Cl)ccc1OCC(=O)O` [Example 314, (S)-1-(2-Carboxymethoxy-5-chloro-phenyl)-5,6-difluoro-3,4-dihydro-1H-isoquinoline-2-carboxylic acid 2-(2-ethyl-5-methyl-2H-pyrazol-3-yl)-ethyl ester] showed an IC50 of 9.8 nM.

In turn, `Cn1cncc1COC(=O)N1CCc2c(ccc(F)c2F)[C@H]1c1cc(Cl)ccc1OCC(=O)O` [Example 315, (S)-1-(2-Carboxymethoxy-5-chloro-phenyl)-5,6-difluoro-3,4-dihydro-1H-isoquinoline-2-carboxylic acid 3-methyl-3H-imidazol-4-ylmethyl ester] displayed an IC50 of 2.82 nM.

For the compound `Cc1cc(C)n(CCOC(=O)N2CCc3c(ccc(F)c3F)[C@H]2c2cc(Cl)ccc2OCC(=O)O)n1` [Example 316, (S)-1-(2-Carboxymethoxy-5-chloro-phenyl)-5,6-difluoro-3,4-dihydro-1H-isoquinoline-2-carboxylic acid 2-(3,5-dimethyl-pyrazol-1-yl)-ethyl ester], the concentration for half-maximal inhibition (IC50) was 5.07 nM. Compared with the last compound, the IC50 is about 1.8-fold higher.

`Cc1cnn(COC(=O)N2CCc3c(ccc(F)c3F)[C@H]2c2cc(Cl)ccc2OCC(=O)O)c1` [Example 317, (S)-1-(2-Carboxymethoxy-5-chloro-phenyl)-5,6-difluoro-3,4-dihydro-1H-isoquinoline-2-carboxylic acid 4-methyl-pyrazol-1-ylmethyl ester]: the IC50 worked out at 14.7 nM.

Regarding `Cc1nc2ccccc2n1CCOC(=O)N1CCc2c(ccc(F)c2F)[C@H]1c1cc(Cl)ccc1OCC(=O)O` [Example 318], the IC50 is 138 nM.

As for `O=C(O)COc1ccc(Cl)cc1[C@@H]1c2ccc(F)c(F)c2CCN1C(=O)OCc1nc2ccccc2s1` [Example 319, (S)-1-(2-Carboxymethoxy-5-chloro-phenyl)-5,6-difluoro-3,4-dihydro-1H-isoquinoline-2-carboxylic acid benzothiazol-2-ylmethyl ester], the concentration for half-maximal inhibition (IC50) is 1.44 nM.

Take `O=C(O)COc1ccc(Cl)cc1[C@@H]1c2ccc(F)c(F)c2CCN1C(=O)OCc1nc2ccccc2o1` [Example 320, (S)-1-(2-Carboxymethoxy-5-chloro-phenyl)-5,6-difluoro-3,4-dihydro-1H-isoquinoline-2-carboxylic acid benzooxazol-2-ylmethyl ester]: the IC50 was 0.52 nM.

Take `Cn1nc(COC(=O)N2CCc3c(ccc(F)c3F)[C@H]2c2cc(Cl)ccc2OCC(=O)O)c2ccccc21` [Example 321, (S)-1-(2-Carboxymethoxy-5-chloro-phenyl)-5,6-difluoro-3,4-dihydro-1H-isoquinoline-2-carboxylic acid 1-methyl-1H-indazol-3-ylmethyl ester]: the IC50 was 1.84 nM.
